IC50 data for 21 compounds are collected here from patent US10040802B2, “Thienopyrazine inhibitors of IRAK4 activity” (MERCK SHARP & DOHME CORP., priority 2015, dated 2018).

The structures appear in SMILES notation. pIC50: −log10 of the molar value. Counter-ions that a name gives are not always drawn.

GST tagged IRAK4, sequence (Q9NWZ3 whole entry): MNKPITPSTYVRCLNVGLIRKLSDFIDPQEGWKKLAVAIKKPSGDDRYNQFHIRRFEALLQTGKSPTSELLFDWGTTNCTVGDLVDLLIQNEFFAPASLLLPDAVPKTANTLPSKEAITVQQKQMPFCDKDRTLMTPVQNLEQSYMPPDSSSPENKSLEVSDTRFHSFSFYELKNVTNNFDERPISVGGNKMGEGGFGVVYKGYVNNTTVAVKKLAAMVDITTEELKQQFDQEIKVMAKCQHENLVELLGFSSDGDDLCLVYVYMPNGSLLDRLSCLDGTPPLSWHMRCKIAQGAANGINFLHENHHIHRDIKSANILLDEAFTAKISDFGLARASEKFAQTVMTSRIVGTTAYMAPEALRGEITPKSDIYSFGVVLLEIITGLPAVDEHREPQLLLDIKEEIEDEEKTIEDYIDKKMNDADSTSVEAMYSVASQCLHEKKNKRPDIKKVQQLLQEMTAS

The assay addresses GST tagged IRAK4 (Homo sapiens (Human), UniProt Q9NWZ3). Description: IRAK4 Kinase Assay (IMAP fluorescence polarization). It counts as biochemical. As to conditions: 0.5 nM GST tagged IRAK4, 100 μM ATP, 30 minutes at 25° C. In a few lines: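 GST-tagged IRAK4 (0.5 nM) phosphorylates 100 nM fluorescent peptide with 100 μM ATP in 10 mM Tris pH 7.2, 1 mM MgCl2, 1 mM DTT, 0.01% Tween 20 for 30 min at 25 °C. Phosphorylation read as IMAP nanoparticle-binding fluorescence polarization after stop reagent.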
Regarding `Cn1cc(NC(=O)c2csc3ncc(N[C@@H]4CCCC[C@@H]4O)nc23)c(C(F)(F)F)n1` [Example 3, 2-{[(1R,2S)-2-hydroxycyclohexyl]amino}-N-[1-methyl-3-(trifluoromethyl)-1H-pyrazol-4-yl] thieno[2,3-b] pyrazine-7-carboxamide trifluoroacetate], the pIC50 was 7.00. Under `N#Cc1cscc1NC(=O)c1csc2ncc(N[C@@H]3CCCC(F)(F)[C@@H]3N)nc12` [Example 79, 2-{[(1R,2R)-2-amino-3,3-difluorocyclohexyl]amino}-N-(4-cyanothiophen-3-yl) thieno[2,3-b] pyrazine-7-carboxamide trifluoroacetate] stands 6.43; under `Cn1cc(NC(=O)c2csc3ncc(N4CC5CCC4CN5)nc23)c(C(F)F)n1` (stereo not drawn) [Example 11, 2-(2,5-diazabicyclo[2.2.2]oct-2-yl)-N-[3-(difluoromethyl)-1-methyl-1H-pyrazol-4-yl]thieno[2,3-b] pyrazine-7-carboxamide], 8.40; under `Cn1cc(NC(=O)c2csc3ncc(N[C@@H]4CCCC(F)(F)[C@@H]4N)nc23)c(C(F)(F)F)n1` [Example 5, 2-{[(1R,2R)-2-amino-3,3-difluorocyclohexyl]amino}-N-[1-methyl-3-(trifluoromethyl)-1H-pyrazol-4-yl] thieno[2,3-b] pyrazine-7-carboxamide trifluoroacetate], 6.48. `N#Cc1ccccc1NC(=O)c1csc2ncc(N3CCC[C@@H](N)C3)nc12` [Example 84, 2-[(3R)-3-aminopiperidin-1-yl]-N-(2-cyanophenyl)-thieno[2,3-b]-pyrazine-7-carboxamide trifluoroacetate] had a pIC50 of 7.48. The compound `Cn1cc(NC(=O)c2csc3ncc(N[C@@H]4CCCC[C@@H]4O)nc23)c(C(F)F)n1` [Example 10, N-[3-(difluoromethyl)-1-methyl-1H-pyrazol-4-yl]-2-{[(1R,2S)-2-hydroxycyclohexyl]amino}thieno[2,3-b] pyrazine-7-carboxamide] showed a pIC50 of 7.52. `O=C(Nc1ccsc1C(F)(F)F)c1csc2ncc(N3C[C@@H]4CC[C@H]3CN4)nc12` (single isomer, unassigned) [Example 74, 2-[(1S,4S)- or (1R,4R)-2,5-diazabicyclo [2.2.2]oct-2-yl]-N-[2-(trifluoromethyl)thiophen-3-yl] thieno[2,3-b] pyrazine-7-carboxamide trifluoroacetate] had a negative logarithm of the IC50 (pIC50) of 5.44.

`Cn1cc(NC(=O)c2csc3ncc(N4C[C@H]5CC[C@@H]4CN5)nc23)c(Br)n1` (single isomer, unassigned) [Example 20, N-(3-bromo-1-methyl-1H-pyrazol-4-yl)-2-[(1S,4S)- or (1R,4R)-2,5-diazabicyclo[2.2.2]oct-2-yl]thieno[2,3-b] pyrazine-7-carboxamide trifluoroacetate]: the pIC50 was 7.72. Under `Cn1cc(NC(=O)c2csc3ncc(N4C[C@@H]5CC[C@H]4CN5)nc23)c(C(F)F)n1` (single isomer, unassigned) [Example 22, 2-[(1S,4S)- or (1R,4R)-2,5-diazabicyclo[2.2.2]oct-2-yl]-N-[3-(difluoromethyl)-1-methyl-1H-pyrazol-4-yl]thieno[2,3-b] pyrazine-7-carboxamide trifluoroacetate] stands 8.15; under `O=C(Nc1ccccc1C(F)F)c1csc2ncc(N3CCCNCC3)nc12` [Example 103, 2-(1,4-diazepan-1-yl)-N-[2-(difluoromethyl)phenyl]thieno[2,3-b]pyrazine-7-carboxamide trifluoroacetate], 5.44. With `O=C(Nc1ccsc1Cl)c1csc2ncc(N3CCCNCC3)nc12` [Example 52, N-(2-chlorothiophen-3-yl)-2-(1,4-diazepan-1-yl)thieno[2,3-b] pyrazine-7-carboxamide trifluoroacetate], the pIC50 is 6.23.

With `Cn1cc(NC(=O)c2csc3ncc(N4CCC[C@@H](N)C4)nc23)c(C(F)(F)F)n1` [Example 9, 2-[(3R)-3-aminopiperidin-1-yl]-N-[1-methyl-3-(trifluoromethyl)-1H-pyrazol-4-yl] thieno[2,3-b] pyrazine-7-carboxamide trifluoroacetate], the pIC50 was 9.00. Under `N#Cc1sccc1NC(=O)c1csc2ncc(N[C@@H]3CCCC(F)(F)[C@@H]3N)nc12` [Example 78, 2-{[(1R,2R)-2-amino-3,3-difluorocyclohexyl]amino}-N-(2-cyanothiophen-3-yl) thieno[2,3-b] pyrazine-7-carboxamide trifluoroacetate] stands 5.44; under `N#Cc1ccccc1NC(=O)c1csc2ncc(N[C@@H]3CCCC[C@@H]3N)nc12` [Example 95, 2-{[(1R,2S)-2-aminocyclohexyl]-amino}-N-(2-cyanophenyl)-thieno[2,3-b]-pyrazine-7-carboxamide trifluoroacetate], 9.30. With `O=C(Nc1ccsc1Br)c1csc2ncc(N3C[C@H]4CC[C@@H]3CN4)nc12` (single isomer, unassigned) [Example 64, N-(2-bromothiophen-3-yl)-2-[(1S,4S)- or (1R,4R)-2,5-diazabicylo[2.2.2]oct-2-yl]thieno[2,3-b] pyrazine-7-carboxamide trifluoroacetate] the figure was 6.12. With `Cn1cc(NC(=O)c2csc3ncc(N4CCNCC4)nc23)c(C(F)(F)F)n1` [Example 2, N-[1-methyl-3-(trifluoromethyl)-1H-pyrazol-4-yl]-2-piperazin-1-ylthieno[2,3-b] pyrazine-7-carboxamide trifluoroacetate] the figure was 7.38. For `Cn1cc(NC(=O)c2csc3ncc(N[C@H]4CCCCNC4)nc23)c(C(F)(F)F)n1` (single isomer, unassigned) [Example 31, 2-[(3S)- or (3R)-azepan-3-ylamino]-N-[1-methyl-3-(trifluoromethyl)-1H-pyrazol-4-yl] thieno[2,3-b] pyrazine-7-carboxamide trifluoroacetate], the negative-log IC50 (pIC50) was 8.15. Under `N#Cc1sccc1NC(=O)c1csc2ncc(N[C@@H]3CCCC[C@@H]3N)nc12` [Example 77, 2-{[(1R,2S)-2-amino-cyclohexyl]amino}-N-(2-(cyanothiophen-3-yl)thieno[2,3-b]pyrazine-7-carboxamide trifluoroacetate] stands 9.30; under `O=C(Nc1ccsc1C(F)(F)F)c1csc2ncc(N3CCCNCC3)nc12` [Example 73, 2-(1,4-diazepan-1-yl)-N-[2-(trifluoromethyl)thiophen-3-yl] thieno[2,3-b] pyrazine-7-carboxamide trifluoroacetate], 5.80; under `Cn1cc(NC(=O)c2csc3ncc(N4CCNCC5(CC5)C4)nc23)c(C(F)F)n1` [Example 13, 2-(5,8-diazaspiro[2.6]non-5-yl)-N-[3-(difluoromethyl)-1-methyl-1H-pyrazol-4-yl]thieno[2,3-b] pyrazine-7-carboxamide trifluoroacetate], 8.22.

`N#Cc1ccccc1NC(=O)c1csc2ncc(N[C@@H]3CCCCNC3)nc12` (single isomer, unassigned) [Example 94, 2-[(3S)- or (3R)-azepan-3-ylamino]-N-(2-cyanophenyl)-thieno[2,3-b]-pyrazine-7-carboxamide trifluoroacetate]: the pIC50 was 8.05.
